Tests used:
[1] = target: T1, 5HT2A receptor (Homo sapiens, UniProt P28223); assay: 5HT2A receptor activation, FLIPR calcium response; type: cell-based; settings: 10 μM, 5HT2A receptor CHO stable cell line
T1 construct: expressed in transfected cells
Method: FIG. 4. Activation of serotonin 5HT2A receptor with hPER1-MPP fusion peptide. (A). hPER1-MPP and TAT-PTD peptides were synthesized alone or in fusion with either the first intracellular loop I1 ([…] (SEQ ID NO:10)), or the C-terminal Transmembrane 7 domain. TM7 ([…] (SEQ ID NO:11) derived from the 5HT2A receptor, genebank accession number, M86841). Receptor activities was assayed using standard FLIPR analysis and measuring endogenous and exogenous Ca^+2 levels. Peptide designations are as follows: T (TAT-PTD), P (hPER1-MPP), I1 (intracellular loop 1), T-I1 (TAT-PTD-I1), P-I1 (hPER1-MPP-I1), TM7 (C-terminal domain), TTM7 (TAT-PTD-TM7), PTM7 (hPER1-MPP-TM7), and S (Serotonin).
FIG. 4 (B). Dose response of PTM7 (closed circles) and TTM7 (closed diamonds) peptides. Serotonin (control, open triangle) was used at the maximum receptor stimulatory concentration of 10 μM.
One of the features of MPPs is their ability to cargo proteins and peptides into cells. We were successful in coupling hPER1-MPP to B-galactosidase and in delivering the fusion protein into cells in culture (data not shown), as has been described by Fawells et al., 1994 (Fawell, S., et al., Proc Natl Acad Sci USA. 91, 664-668 (1994)). However, to further extend the functional utility of MPPs, we tested hPER1-MPP in fusion with a physiologically relevant and biologically active peptide. […]

[2] = test system: CHO cells; assay: Membrane penetration (peptide internalization) assay of biotinylated synthetic peptides; type: cell-based, Chinese Hamster; settings: for intracellular distribution / staining of internalized peptide: Streptavidin ALEXA or anti-Flag mAb staining; for cells penetrated by peptide: peptide 10 μM added to cells in culture
Method: FIG. 2. Membrane penetration assay in CHO cells. N-terminal biotinylated synthetic peptides hPER1-PTD, Flag-hPER1-PTD, Flag-TAT-PTD (positive control), and Flag-Flag (negative control) were assayed for their ability to penetrate cellular membranes in living CHO cells in culture. The subcellular localization of internalized peptides was determined using a two color staining method, either Streptavidin-Alexa 594 (red) or anti-flag mAb. The third column is an overlay. Confocal microscopy was employed to further confirm intracellular and intranuclear localization. Single section of confocal imaging is shown.
FIG. 3. Alanine scanning of hPER1-PDTs. Biotinylated hPER1-NPDs were synthesized with a single amino acid residue substitution at the indicated position with an alanine and assayed for membrane penetration in CHO cells. Cells were incubated for 10 minutes at 37 C. at a peptide concentration of 10 μM followed by washing, fixation, permeablization, and then detected with labeled Streptavidin Alexa-594 (red, 2 μg/ml) for 15 minutes at the RT. Control peptide was from hPER1 N-terminal amino acids residues 486-500.
Peptides are synthesized by a commercial vendor (Bio Synthesis). For peptides internalization, cells are plated into two-well Lab-Tek coverslips (Nunc Inc.) at a density of 2×10^5 cells/well and cultured overnight. The peptides are dissolved in DMSO diluted to indicated concentration with PBS. The cell monolayers were incubated with the appropriate peptide/PBS solution at 1 μM standard concentration for 10 min at room temperature (RT) unless otherwise specified. For experiments at 4° C., the protocol was the same except that all incubations were performed at 4° C. until the end of the fixation procedure.
The peptides are assayed for their ability to penetrate cellular membranes. Intracellular localization is assayed by direct staining with labeled Streptavidin ALEXA reagents or by indirect staining with anti-Flag mAb followed by the addition of labeled secondary antibodies.

[3] = test system: CHO cells; assay: β-galactosidase cargo delivery into cells (X-gal staining); type: cell-based, Chinese Hamster; settings: chemically linked conjugates
Source text: (§1) FIG. 6. hPER-PTD cargo's β-Galactosidase into cells: At least one feature of HIV TAT transducing peptide is its ability to cargo proteins into cells and tissues. We therefore sought to determine if hPER1 transducing peptide could cargo beta galactosidase into cells. To perform this experiment, we followed a protocol by Frankel et al. 1989 (19):7397-401, whereby, we chemically linked hPER1-PTD or hPER-PTD R7A to full length β-galactosidase and assayed for the ability of these conjugates and beta-galactosidase protein alone to transduce into CHO cells.
as §1, with “At” for “FIG. 6. hPER-PTD cargo's β-Galactosidase into cells: At”, “al. PNAS” for “al.”, “R7A (with Ala replacing Arg^7)” for “R7A”

T1 sequence (P28223 whole entry): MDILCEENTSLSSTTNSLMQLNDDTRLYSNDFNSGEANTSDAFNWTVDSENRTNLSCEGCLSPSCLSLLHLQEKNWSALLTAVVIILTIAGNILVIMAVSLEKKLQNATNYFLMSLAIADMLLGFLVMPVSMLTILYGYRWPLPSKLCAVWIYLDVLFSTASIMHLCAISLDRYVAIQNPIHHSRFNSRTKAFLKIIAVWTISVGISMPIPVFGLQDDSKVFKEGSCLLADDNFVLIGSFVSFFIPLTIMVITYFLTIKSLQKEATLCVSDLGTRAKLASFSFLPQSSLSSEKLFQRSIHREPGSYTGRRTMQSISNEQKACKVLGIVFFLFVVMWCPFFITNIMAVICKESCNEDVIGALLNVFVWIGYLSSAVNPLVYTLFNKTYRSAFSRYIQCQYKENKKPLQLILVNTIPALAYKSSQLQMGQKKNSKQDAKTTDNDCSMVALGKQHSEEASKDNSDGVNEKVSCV

## NCCc1c[nH]c2ccc(O)cc12 [serotonin]
[1]
  5HT2A receptor signaling, calcium response: receptor signaling is activated

## GDPKKKRKV [SV40, reference compound]
[2]
  membrane penetrating ability in words (relative to wild-type hPER1-MPP, TAT-PTD or negative control): not all NLSs are PTDs

## GKHRHERGHHRDRRER [Cyclin L ania-6a]
[2]
  membrane penetrating ability in words (relative to wild-type hPER1-MPP, TAT-PTD or negative control): not all NLSs are PTDs

## GKKKRKLSNRESAKRSR [beta Zip TF]
[2]
  membrane penetrating ability in words (relative to wild-type hPER1-MPP, TAT-PTD or negative control): not all NLSs are PTDs

## GKKTGKNRKLKSKRVKPRD [hPER2]
[2]
  membrane penetrating ability in words (relative to wild-type hPER1-MPP, TAT-PTD or negative control): not all NLSs are PTDs

## GMDYKDDDDKGMDYKDDDDK [Flag, reference compound]
[2]
  intracellular distribution / staining of internalized peptide: only barely discernible background staining

## GMDYKDDDDKGSRRHHCRSKAKRSHH [Flag-hPER1]
[2]
  intracellular distribution / staining of internalized peptide: diffusely distributed throughout the cytoplasm, but concentrated within subnuclear domains
  cells penetrated by peptide: 100%

## GMDYKDDDDKGYGRKKKRRQRRR [Flag-TAT, reference compound]
[2]
  intracellular distribution / staining of internalized peptide: diffusely distributed throughout the cytoplasm, but concentrated within subnuclear domains
  cells penetrated by peptide: 100%

## GRRERNKMAAAKCRNRRR [C-FOS]
[2]
  membrane penetrating ability in words (relative to wild-type hPER1-MPP, TAT-PTD or negative control): not all NLSs are PTDs

## KTYRSAFSRYIQYKENKKPLQLI [TM7, C-terminal Transmembrane 7 domain peptide of the 5HT2A receptor]
[1]
  5HT2A receptor signaling, calcium response: TM7 alone nor any of the other peptides were able to generate a calcium response

## R R H H C R S K A K R S R (RRHHCRSKAKRSR) [hPER1-PTD13]
[2]
  membrane penetrating ability in words (relative to wild-type hPER1-MPP, TAT-PTD or negative control): little overall effect on the positive membrane penetrating potential

## S R R H H C A S K A K R S R H H (SRRHHCASKAKRSRHH) [R7A]
[2]
  membrane penetrating ability in words (relative to wild-type hPER1-MPP, TAT-PTD or negative control): reduced the detectable cytological signal to that observed for the negative control peptides

## SRRHHCRSKAKRSRHH [hPER1-MPP, N-terminally biotinylated peptide of hPER1 amino acids 830-845]
[2]
  membrane penetrating ability in words (relative to wild-type hPER1-MPP, TAT-PTD or negative control): efficiencies similar to the TAT-PTD peptide
  time of internalization: ≤ 5 min
  intracellular distribution / staining of internalized peptide: diffusely distributed throughout the cytoplasm, but concentrated within subnuclear domains
  cells penetrated by peptide: 100%

## β-galactosidase protein: full length β-galactosidase alone
[3]
  delivery of β-galactosidase into cells (enzymatic activity, blue color after X-gal): no blue staining reactivity

Source: patent publication US7754678B2, “Membrane penetrating peptides and uses thereof” (Aventis Pharmaceuticals Inc., priority 2000, dated 2010)
